Measurements from patent publication US10869878B2, “Vaginal composition and use thereof” (SINGAPORE ZE&Z INTERNATIONAL PTE. LTD, priority 2014, dated 2020).

Key:
Assay type in all cases: cell-based
[1] = system: BV-associated bacteria; assay: Acid production by BV-associated bacteria in carbohydrate containing gels, slightly aerobic incubation (Experimental Example 1); settings: 1% (w/v) carbohydrate gel
From the text: (1) Grouping in experiment: • (1) Isomaltulose group: containing 1% (w/v) isomaltulose, MRS basal medium without carbohydrate, 5% (w/v) calf serum, and 0.5% (w/v) xanthan gum, pH5.4; • (2) Isomaltose group: containing 1% (w/v) isomaltose, MRS basal medium without carbohydrate, 5% (w/v) calf serum, and 0.5% (w/v) xanthan gum, pH5.4; • (3) Sucrose group: containing 1% (w/v) sucrose, MRS basal medium without carbohydrate, 5% (w/v) calf serum, and 0.5% (w/v) xanthan gum, pH5.4; and • (4) Maltose group: containing 1% (w/v) maltose, MRS basal medium without carbohydrate, 5% (w/v) calf serum, and 0.5% (w/v) xanthan gum, pH5.4.
The gel of each group was formulated essentially following the method described in Composition Example 1, then sterilized, added with calf serum, and packed in test tubes in a specification of 5 g/tube, for late use.
(§1) (2) Secretion specimens from BV patients: vaginal secretions from 5 BV patients; and the criteria of inclusion are: • (1) conforming to the Amsel clinical criteria of BV diagnosis, wherein the pH value of the vaginal secretions was >4.6; • (2) after smearing, Gram staining and microscopical examination of vaginal secretions, Nugent score ≥7; and • (3) no other vaginosis and no antimicrobial agent is used within two weeks.
(3) After sampling, the secretion specimens from BV patients meeting the criteria of inclusion were immediately inoculated to the above 4 gels containing a carbohydrate, and slightly aerobically incubated at 37° C. for 46 hrs. The pH values of the gel matrices are detected with a precise pH test paper respectively at 14 hrs, 36 hrs, and 46 hrs.

[2] = system: Canidia albicans; assay: Metabolization of carbohydrates by Canidia albicans, residual carbohydrate by HPLC (Experimental Example 5); settings: 72 hrs aerobic, 37° C., initial 1.5% (w/v) carbohydrate, pH 7.0, detection limit 0.05% (w/v)
Description: (1) Grouping in experiment:
(2) Test strain: 2 strains of Canidia albicans, isolated from patients with candidal vaginitis.
The supernatant was separated by centrifugation, and packed in a specification of 5 ml/tube. The carbohydrate content in each tube was detected by HPLC.

[3] = system: Bifidobacteria in the secretions from BV patients; assay: Selective promotion of carbohydrate containing gels for the growth of Bifidobacteria (Experimental Example 4); settings: secretions from 20 BV patients; 1% (w/v) carbohydrate gel, 48 hrs slightly aerobic
Description: (3) After sampling, the vaginal secretion specimens from BV patients meeting the criteria of inclusion were immediately inoculated to the above 4 gels containing a carbohydrate, slightly aerobically incubated at 37° C. for 48 hrs, then transferred to a plate containing improved MRS with 1% (w/v) glucose and 5% (w/v) calf serum, slightly aerobically incubated for 20-48 hrs, isolated, purified and multiplied. The strain was identified by 16s rDNA sequencing.

[4] = system: BV-associated bacteria; assay: Acid production by BV-associated bacteria in semi-solid agars containing a carbohydrate, anaerobic incubation (Experimental Example 2); settings: 24 hrs anaerobic, 37° C., 1.5% (w/v) carbohydrate, initial pH 5.4
From the text: (1) Grouping in experiment: • (1) Glucose group: containing 1.5% (w/v) glucose, MRS basal medium without carbohydrate, 5% (w/v) calf serum, and 0.45% (w/v) agar, pH5.4; • (2) Fructose group: containing 1.5% (w/v) fructose, MRS basal medium without carbohydrate, 5% (w/v) calf serum, and 0.45% (w/v) agar, pH5.4; • (3) Mannose group: containing 1.5% (w/v) mannose, MRS basal medium without carbohydrate, 5% (w/v) calf serum, and 0.45% (w/v) agar, pH5.4; • (4) Sucrose group: containing 1.5% (w/v) sucrose, MRS basal medium without carbohydrate, 5% (w/v) calf serum, and 0.45% (w/v) agar, pH5.4; • (5) Maltose group: containing 1.5% (w/v) maltose, MRS basal medium without carbohydrate, 5% (w/v) calf serum, and 0.45% (w/v) agar, pH5.4; • (6) Isomaltose group: containing 1.5% (w/v) isomaltose, MRS basal medium without carbohydrate, 5% (w/v) calf serum, and 0.45% (w/v) agar, pH5.4; and • (7) Isomaltulose group: containing 1.5% (w/v) isomaltulose, MRS basal medium without carbohydrate, 5% (w/v) calf serum, and 0.45% (w/v) agar, pH5.4.
The semi-solid agar of each group was formulated essentially following the method described in Composition Example 1, then sterilized, added with calf serum, and packed in test tubes in a specification of 5 g/tube, for late use.
as §1
(3) After sampling, the secretion specimens from BV patients meeting the criteria of inclusion were immediately inoculated to the above 7 aseptic semi-solid agars containing a carbohydrate at the bedside and anaerobically incubated at 37° C. for 24 hrs. The pH values of the agar matrices are detected with a precise pH test paper.

[5] = Specimen 1, 14 hrs, slightly aerobic, 37° C., initial pH 5.4
[6] = Specimen 1, 46 hrs, slightly aerobic, 37° C., initial pH 5.4
[7] = Specimen 2, 14 hrs, slightly aerobic, 37° C., initial pH 5.4
[8] = Specimen 2, 46 hrs, slightly aerobic, 37° C., initial pH 5.4
[9] = Specimen 3, 14 hrs, slightly aerobic, 37° C., initial pH 5.4
[10] = Specimen 3, 36 hrs, slightly aerobic, 37° C., initial pH 5.4
[11] = Specimen 4, 14 hrs, slightly aerobic, 37° C., initial pH 5.4
[12] = Specimen 4, 36 hrs, slightly aerobic, 37° C., initial pH 5.4
[13] = Specimen 5, 14 hrs, slightly aerobic, 37° C., initial pH 5.4
[14] = Specimen 5, 36 hrs, slightly aerobic, 37° C., initial pH 5.4

For OC[C@H]1O[C@H](OC[C@H]2OC(O)[C@H](O)[C@@H](O)[C@@H]2O)[C@H](O)[C@@H](O)[C@@H]1O (stereo partly drawn) [Isomaltose, isomaltose], the “pH of the gel” value ([1]; Specimen 1, 0 hr (initial)) was 5.4, the “pH of the gel” value [1, 5] was 3.8 and the “pH of the gel” value [1, 6] was at most 3.8. For the same compound, the “pH of the gel” value ([1]; Specimen 2, 0 hr (initial)) was 5.4, the “pH of the gel” value [1, 7] was 4.1-4.4 and the “pH of the gel” value [1, 8] was at most 3.8. The “pH of the gel” value ([1]; Specimen 3, 0 hr (initial)) was 5.4, the “pH of the gel” value [1, 9] was 4.1-4.4 and the “pH of the gel” value [1, 10] was at most 3.8. For the same compound, the “pH of the gel” value ([1]; Specimen 4, 0 hr (initial)) was 5.4, the “pH of the gel” value [1, 11] was 4.4 and the “pH of the gel” value [1, 12] was at most 3.8. For the same compound, the “pH of the gel” value ([1]; Specimen 5, 0 hr (initial)) was 5.4, the “pH of the gel” value [1, 13] was 4.1-4.4 and the “pH of the gel” value [1, 14] was 4.1-4.4. For the same compound, the “residual carbohydrate content by HPLC” value ([2]; Canidia albicans 1) was 0.74 g %, the “residual carbohydrate content by HPLC” value ([2]; Canidia albicans 2) was 0.76 g % and the “number of samples positive for Bifidobacterium bifidum” value (shortened to “number … for Bifidobacterium bifidum”) [3] was 0. For the same compound, the “number of samples positive for Bifidobacterium breve” value (from here on “number … for Bifidobacterium breve”) [3] was 0, the “number of samples positive for Bifidobacterium dentium” value (shortened to “number … for Bifidobacterium dentium”) [3] was 0 and the “number of samples positive for Bifidobacterium longum” value (from here on “number … for Bifidobacterium longum”) [3] was 0. For the same compound, the “samples positive for Bifidobacteria, In total” value (“samples positive … In total” below) [3] was 0, the “pH of the semi-solid agar” value ([4]; Specimen 1) was 3.8-4.1 and the “pH of the semi-solid agar” value ([4]; Specimen 2) was 4.1. For the same compound, the “pH of the semi-solid agar” value ([4]; Specimen 3) was 3.8, the “pH of the semi-solid agar” value ([4]; Specimen 4) was 3.8 and the “pH of the semi-solid agar” value ([4]; Specimen 5) was 3.8.
With OC[C@H]1O[C@@](CO)(O[C@H]2O[C@H](CO)[C@@H](O)[C@H](O)[C@H]2O)[C@@H](O)[C@@H]1O [Sucrose, sucrose] the “pH of the gel” value ([1]; Specimen 1, 0 hr (initial)) was 5.4, the “pH of the gel” value [1, 5] was at most 3.8 and the “pH of the gel” value [1, 6] was at most 3.8. The “pH of the gel” value ([1]; Specimen 2, 0 hr (initial)) was 5.4, the “pH of the gel” value [1, 7] was 4.4 and the “pH of the gel” value [1, 8] was at most 3.8. The “pH of the gel” value ([1]; Specimen 3, 0 hr (initial)) was 5.4, the “pH of the gel” value [1, 9] was 4.8-5.1 and the “pH of the gel” value [1, 10] was 4.4-4.6. The “pH of the gel” value ([1]; Specimen 4, 0 hr (initial)) was 5.4, the “pH of the gel” value [1, 11] was 4.8-5.1 and the “pH of the gel” value [1, 12] was at most 3.8. The “pH of the gel” value ([1]; Specimen 5, 0 hr (initial)) was 5.4, the “pH of the gel” value [1, 13] was 4.4-4.6 and the “pH of the gel” value [1, 14] was 4.4-4.6. The “residual carbohydrate content by HPLC” value ([2]; Canidia albicans 1) was 1.04 g %, the “residual carbohydrate content by HPLC” value ([2]; Canidia albicans 2) was 0.95 g % and the “number … for Bifidobacterium bifidum” value [3] was 0. For the same compound, the “number … for Bifidobacterium breve” value [3] was 0, the “number … for Bifidobacterium dentium” value [3] was 0 and the “number … for Bifidobacterium longum” value [3] was 0. The “samples positive … In total” value [3] was 0, the “pH of the semi-solid agar” value ([4]; Specimen 1) was 4.1-4.4 and the “pH of the semi-solid agar” value ([4]; Specimen 2) was 3.8-4.1. For the same compound, the “pH of the semi-solid agar” value ([4]; Specimen 3) was 3.8, the “pH of the semi-solid agar” value ([4]; Specimen 4) was 4.1 and the “pH of the semi-solid agar” value ([4]; Specimen 5) was 3.8.
OC[C@H]1O[C@H](OC[C@H]2OC(O)(CO)[C@@H](O)[C@@H]2O)[C@H](O)[C@@H](O)[C@@H]1O (stereo partly drawn) [Isomaltulose, isomaltulose] was tested, and the “pH of the gel” value ([1]; Specimen 1, 0 hr (initial)) was 5.4, the “pH of the gel” value [1, 5] was at most 3.8 and the “pH of the gel” value [1, 6] was at most 3.8. For the same compound, the “pH of the gel” value ([1]; Specimen 2, 0 hr (initial)) was 5.4, the “pH of the gel” value [1, 7] was 4.1 and the “pH of the gel” value [1, 8] was at most 3.8. The “pH of the gel” value ([1]; Specimen 3, 0 hr (initial)) was 5.4, the “pH of the gel” value [1, 9] was 3.8-4.1 and the “pH of the gel” value [1, 10] was at most 3.8. For the same compound, the “pH of the gel” value ([1]; Specimen 4, 0 hr (initial)) was 5.4, the “pH of the gel” value [1, 11] was 4.1 and the “pH of the gel” value [1, 12] was at most 3.8. The “pH of the gel” value ([1]; Specimen 5, 0 hr (initial)) was 5.4, the “pH of the gel” value [1, 13] was 4.1-4.4 and the “pH of the gel” value [1, 14] was at most 3.8. For the same compound, the “residual carbohydrate content by HPLC” value ([2]; Canidia albicans 1) was 0.11 g %, the “residual carbohydrate content by HPLC” value ([2]; Canidia albicans 2) was 0.12 g % and the “number … for Bifidobacterium bifidum” value [3] was 0. The “number … for Bifidobacterium breve” value [3] was 0, the “number … for Bifidobacterium dentium” value [3] was 0 and the “number … for Bifidobacterium longum” value [3] was 0. For the same compound, the “samples positive … In total” value [3] was 0, the “pH of the semi-solid agar” value ([4]; Specimen 1) was 3.8 and the “pH of the semi-solid agar” value ([4]; Specimen 2) was 3.8. For the same compound, the “pH of the semi-solid agar” value ([4]; Specimen 3) was 3.8, the “pH of the semi-solid agar” value ([4]; Specimen 4) was 3.8 and the “pH of the semi-solid agar” value ([4]; Specimen 5) was 3.8.
